Here are results for one compound from ChEMBL document CHEMBL3813644, “Utilization of Structure-Based Design to Identify Novel, Irreversible Inhibitors of EGFR Harboring the T790M Mutation” (ACS Med Chem Lett, 2016).

In series [1] the target is T1, Epidermal growth factor receptor (Homo sapiens, UniProt P00533, L858R/T790M). Description: Inhibition of recombinant N-terminal GST-tagged human EGFR T790M/L858R double mutant using biotinylated TK substrate incubated for 50 mins by HTRF assay. Format: protein assay.
For the next series, the system named is A-431. Description: Antitumor activity against human A431 cells harboring wild-type EGFR xenografted in mouse at 50 mg/kg/day, po qd for 7 days. It is filed as functional. As to conditions: A-431, po, 168 h, read-out: TGI.
The target in series [2] is T1, Epidermal growth factor receptor. Description: Inhibition of EGFR T790M/L858R double mutant autophosphorylation in human NCI-H1975 cells incubated for 2 hrs by ELISA. Format: cell-based. In general terms: In an ELISA, binding on a coated surface is turned into a signal by an enzyme label.
In series [3] the target is Epidermal growth factor receptor (Homo sapiens, UniProt P00533, EX19DEL). Description: Inhibition of EGFR exon19 deletion activating mutant autophosphorylation in human PC9 cells incubated for 2 hrs by ELISA. It is filed as cell-based, PC-9.
Series [4] deals with T2, Epidermal growth factor receptor (Homo sapiens, UniProt P00533). Description: Inhibition of wild-type EGFR autophosphorylation in human LoVo cells incubated for 2 hrs followed by EGF-stiumlation for 10 mins by ELISA. It is filed as cell-based.
Series [5] in a line: Intrinsic clearance in human liver microsomes. Format: ADME. As to conditions: read-out: CLH. In general terms: Microsomes from liver hold many membrane-bound enzymes, among them those of drug oxidation.
Series [6] can be described thus: Solubility of compound at pH 7.4. It is filed as physicochemical. As to conditions: buffer.
Series [7] concerns Epidermal growth factor receptor (Homo sapiens), P00533 [L858R,T790M]. Description: Inhibition of human EGFR T790M/L858R double mutant at 1 uM. Format: protein assay.
Series [8] concerns the target T2, Epidermal growth factor receptor. Description: Inhibition of wild-type human EGFR at 1 uM.
Series [9] deals with T3, Tyrosine-protein kinase JAK3 (Homo sapiens) (UniProt P52333).
T3 sequence (whole entry): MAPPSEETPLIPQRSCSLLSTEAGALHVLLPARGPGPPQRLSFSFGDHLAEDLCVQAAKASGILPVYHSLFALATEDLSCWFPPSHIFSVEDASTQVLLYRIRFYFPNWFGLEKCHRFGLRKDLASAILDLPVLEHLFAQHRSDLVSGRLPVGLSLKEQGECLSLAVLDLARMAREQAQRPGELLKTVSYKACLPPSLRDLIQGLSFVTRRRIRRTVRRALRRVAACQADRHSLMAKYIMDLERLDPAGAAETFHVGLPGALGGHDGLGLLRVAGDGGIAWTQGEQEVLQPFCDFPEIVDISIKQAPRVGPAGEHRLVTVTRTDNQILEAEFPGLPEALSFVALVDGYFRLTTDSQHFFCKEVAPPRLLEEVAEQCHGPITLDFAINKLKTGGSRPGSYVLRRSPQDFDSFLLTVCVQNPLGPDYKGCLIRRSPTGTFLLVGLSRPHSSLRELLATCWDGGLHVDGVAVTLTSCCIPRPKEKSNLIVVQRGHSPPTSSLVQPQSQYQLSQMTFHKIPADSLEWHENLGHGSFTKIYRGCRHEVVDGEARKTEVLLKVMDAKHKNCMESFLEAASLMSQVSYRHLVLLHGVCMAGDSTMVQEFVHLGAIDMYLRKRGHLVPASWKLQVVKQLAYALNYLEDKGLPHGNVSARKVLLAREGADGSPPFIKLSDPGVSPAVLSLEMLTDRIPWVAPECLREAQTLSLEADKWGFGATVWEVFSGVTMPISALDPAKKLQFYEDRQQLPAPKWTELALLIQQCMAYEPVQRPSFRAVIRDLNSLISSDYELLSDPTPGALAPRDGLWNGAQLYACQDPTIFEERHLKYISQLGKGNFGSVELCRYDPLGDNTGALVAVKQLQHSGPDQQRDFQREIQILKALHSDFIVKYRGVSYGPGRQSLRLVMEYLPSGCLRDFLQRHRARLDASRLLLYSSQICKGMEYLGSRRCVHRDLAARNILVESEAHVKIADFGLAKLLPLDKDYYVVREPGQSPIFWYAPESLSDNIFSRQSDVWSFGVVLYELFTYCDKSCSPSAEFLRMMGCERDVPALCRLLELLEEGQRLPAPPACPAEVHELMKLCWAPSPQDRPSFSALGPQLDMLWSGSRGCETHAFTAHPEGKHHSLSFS
Description: Inhibition of human JAK3 at 1 uM.

In series [10] the test system is NCI-H1975. Description: Antiproliferative activity against human NCI-H1975 cells assessed as growth inhibition incubated for 72 hrs by SYTOX green nucleic acid stain-based fluorescence analysis. It is filed as functional. The note with it: NCI-H1975, 72 h.
The nature of series [11]: Antiproliferative activity against human PC9 cells assessed as growth inhibition incubated for 72 hrs by SYTOX green nucleic acid stain-based fluorescence analysis. It is filed as functional. As to conditions: PC-9, 72 h.
Series [12] can be described thus: Antiproliferative activity against human Calu6 cells incubated for 72 hrs by SYTOX green nucleic acid stain-based fluorescence analysis. Format: cell-based, Calu-6.
Series [13] is described as follows: Selectivity ratio of GI50 for human Calu6 cells to GI50 for human NCI-H1975 cells. Format: ADME, cell-based. The note with it: Calu6 cells and NCI-H1975 cells, read-out: RatioGI50.
Series [14] is described as follows: Antitumor activity against human PC9 cells harboring EGFR exon19 deletion activating mutant xenografted in mouse at 50 mg/kg/day, po qd for 7 days. Format: functional. The note with it: PC-9, po, 168 h, read-out: TGI.
Series [15] relates to NCI-H1975. Description: Antitumor activity against human NCI-H1975 cells harboring EGFR T790M/L858R double mutant xenografted in mouse at 50 mg/kg/day, po qd for 7 days. Format: functional. The note with it: 168 h, read-out: TGI. A general note: Xenograft models place foreign cells or tissue in a host animal.
The test system of a further series is Mus musculus. Description: T>EC50 in female nude mouse assessed as time duration during which plasma concentration covers cellular EC50 for EGFR T790M/L858R double mutant autophosphorylation in human NCI-H1975 cells at 50 mg/kg, po. It is filed as ADME, organism-based. As to conditions: in vivo.

Where only a bound is given, the exact number is not on record here.

T2 sequence (P00533 whole entry): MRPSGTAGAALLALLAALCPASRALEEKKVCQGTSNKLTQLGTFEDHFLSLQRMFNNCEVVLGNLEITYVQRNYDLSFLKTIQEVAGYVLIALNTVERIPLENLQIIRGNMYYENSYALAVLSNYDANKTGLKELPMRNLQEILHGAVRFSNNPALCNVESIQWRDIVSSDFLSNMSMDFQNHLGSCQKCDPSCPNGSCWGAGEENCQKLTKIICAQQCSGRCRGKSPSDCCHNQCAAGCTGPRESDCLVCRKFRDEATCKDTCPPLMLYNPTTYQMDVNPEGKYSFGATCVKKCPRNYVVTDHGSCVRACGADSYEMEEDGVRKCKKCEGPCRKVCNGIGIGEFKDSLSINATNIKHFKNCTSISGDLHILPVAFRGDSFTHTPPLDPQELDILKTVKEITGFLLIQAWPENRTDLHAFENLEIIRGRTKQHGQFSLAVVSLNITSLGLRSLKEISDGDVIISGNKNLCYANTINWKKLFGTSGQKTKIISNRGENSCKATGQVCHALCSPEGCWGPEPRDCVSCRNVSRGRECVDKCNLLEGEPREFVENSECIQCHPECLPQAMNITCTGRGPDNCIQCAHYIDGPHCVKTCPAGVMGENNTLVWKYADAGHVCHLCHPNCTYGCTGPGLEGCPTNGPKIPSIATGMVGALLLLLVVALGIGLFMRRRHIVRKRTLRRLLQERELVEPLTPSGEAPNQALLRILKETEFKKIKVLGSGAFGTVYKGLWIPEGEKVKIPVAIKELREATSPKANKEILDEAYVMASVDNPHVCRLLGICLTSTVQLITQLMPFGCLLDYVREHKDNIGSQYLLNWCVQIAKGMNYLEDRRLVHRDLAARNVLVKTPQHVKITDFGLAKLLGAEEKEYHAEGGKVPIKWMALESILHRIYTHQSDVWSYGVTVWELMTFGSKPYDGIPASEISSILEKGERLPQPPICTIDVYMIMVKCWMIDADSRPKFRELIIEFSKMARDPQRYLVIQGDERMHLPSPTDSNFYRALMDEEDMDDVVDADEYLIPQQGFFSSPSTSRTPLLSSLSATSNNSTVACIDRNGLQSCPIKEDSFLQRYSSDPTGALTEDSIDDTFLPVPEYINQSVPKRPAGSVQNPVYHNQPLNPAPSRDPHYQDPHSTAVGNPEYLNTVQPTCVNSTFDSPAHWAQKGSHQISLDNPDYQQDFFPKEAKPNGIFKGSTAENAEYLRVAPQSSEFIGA
T1 sequence (P00533 25-1210 T790M/L858R limits assumed): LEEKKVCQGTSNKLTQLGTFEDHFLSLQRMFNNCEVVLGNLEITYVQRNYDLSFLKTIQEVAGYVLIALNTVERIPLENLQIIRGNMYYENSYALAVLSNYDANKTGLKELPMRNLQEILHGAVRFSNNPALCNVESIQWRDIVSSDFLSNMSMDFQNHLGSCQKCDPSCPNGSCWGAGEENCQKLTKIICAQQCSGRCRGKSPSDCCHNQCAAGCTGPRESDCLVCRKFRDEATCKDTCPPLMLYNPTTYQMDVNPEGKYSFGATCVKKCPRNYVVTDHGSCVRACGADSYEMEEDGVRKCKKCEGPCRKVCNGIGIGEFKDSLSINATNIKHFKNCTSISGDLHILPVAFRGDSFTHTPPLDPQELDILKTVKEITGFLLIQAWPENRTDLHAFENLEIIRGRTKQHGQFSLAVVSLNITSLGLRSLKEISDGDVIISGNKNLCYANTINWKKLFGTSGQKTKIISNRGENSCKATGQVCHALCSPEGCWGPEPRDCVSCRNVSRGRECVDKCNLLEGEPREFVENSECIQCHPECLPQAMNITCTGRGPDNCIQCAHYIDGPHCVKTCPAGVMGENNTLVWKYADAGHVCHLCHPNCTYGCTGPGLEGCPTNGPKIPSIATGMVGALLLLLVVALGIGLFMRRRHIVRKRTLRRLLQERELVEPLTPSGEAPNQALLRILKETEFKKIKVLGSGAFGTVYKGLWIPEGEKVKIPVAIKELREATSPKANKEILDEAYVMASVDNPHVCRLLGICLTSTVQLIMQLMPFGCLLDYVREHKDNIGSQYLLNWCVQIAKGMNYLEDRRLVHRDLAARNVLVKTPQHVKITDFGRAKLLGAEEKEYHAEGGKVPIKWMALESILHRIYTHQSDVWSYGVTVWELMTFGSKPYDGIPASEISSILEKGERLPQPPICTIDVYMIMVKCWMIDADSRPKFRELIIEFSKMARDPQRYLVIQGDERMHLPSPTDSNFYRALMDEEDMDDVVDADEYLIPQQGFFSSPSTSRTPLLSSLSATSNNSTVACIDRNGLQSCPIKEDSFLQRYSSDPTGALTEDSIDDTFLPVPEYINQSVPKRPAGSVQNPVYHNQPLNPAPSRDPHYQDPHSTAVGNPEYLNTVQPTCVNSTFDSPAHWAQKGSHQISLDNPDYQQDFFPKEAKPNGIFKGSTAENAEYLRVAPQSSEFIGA
Sequence of Epidermal growth factor receptor (Homo sapiens, UniProt P00533, EX19DEL) (P00533 whole entry, looked up, stated change not applied): as the sequence (P00533 whole entry) above
Sequence of Epidermal growth factor receptor (Homo sapiens), P00533 [L858R,T790M] (P00533 whole entry T790M/L858R, looked up): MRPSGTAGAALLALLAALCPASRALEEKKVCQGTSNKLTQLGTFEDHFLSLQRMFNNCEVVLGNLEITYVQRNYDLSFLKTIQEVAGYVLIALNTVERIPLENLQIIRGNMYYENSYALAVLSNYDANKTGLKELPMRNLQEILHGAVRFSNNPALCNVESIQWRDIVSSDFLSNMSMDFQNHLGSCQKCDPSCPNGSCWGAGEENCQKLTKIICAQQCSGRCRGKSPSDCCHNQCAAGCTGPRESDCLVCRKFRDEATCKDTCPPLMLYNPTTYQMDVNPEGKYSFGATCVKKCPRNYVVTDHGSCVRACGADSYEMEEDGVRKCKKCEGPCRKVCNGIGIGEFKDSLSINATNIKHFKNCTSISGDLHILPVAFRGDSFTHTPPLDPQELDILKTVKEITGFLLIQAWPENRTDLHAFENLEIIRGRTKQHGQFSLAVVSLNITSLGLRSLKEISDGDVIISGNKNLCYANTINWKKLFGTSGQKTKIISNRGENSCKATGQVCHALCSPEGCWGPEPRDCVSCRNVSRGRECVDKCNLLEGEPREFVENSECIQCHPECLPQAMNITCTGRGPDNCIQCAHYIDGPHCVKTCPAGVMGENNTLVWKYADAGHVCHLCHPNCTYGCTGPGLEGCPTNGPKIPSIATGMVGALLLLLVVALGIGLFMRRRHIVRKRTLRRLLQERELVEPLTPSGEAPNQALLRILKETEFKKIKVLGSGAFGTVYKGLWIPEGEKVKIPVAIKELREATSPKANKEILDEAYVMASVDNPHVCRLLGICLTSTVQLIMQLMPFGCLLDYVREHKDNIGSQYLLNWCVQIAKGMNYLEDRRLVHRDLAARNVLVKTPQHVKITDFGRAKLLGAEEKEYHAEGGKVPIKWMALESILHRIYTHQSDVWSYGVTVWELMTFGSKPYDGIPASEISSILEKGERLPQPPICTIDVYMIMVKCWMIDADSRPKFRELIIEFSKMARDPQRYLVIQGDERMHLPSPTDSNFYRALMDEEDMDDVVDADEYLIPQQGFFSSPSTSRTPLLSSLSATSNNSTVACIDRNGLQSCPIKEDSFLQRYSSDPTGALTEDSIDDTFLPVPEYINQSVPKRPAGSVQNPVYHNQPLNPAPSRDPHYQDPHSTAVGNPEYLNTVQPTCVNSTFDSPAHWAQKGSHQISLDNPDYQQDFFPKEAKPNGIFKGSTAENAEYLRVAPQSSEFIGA

For orientation: IC50 means the concentration that inhibits the measured activity by half. The term EC50 denotes the concentration needed to bring the measured effect to its halfway point. Low readings indicate higher potency in that assay, high ones lower potency in that assay. Usually solubility stands for how much of the substance goes into solution per volume. Read a high solubility as much dissolved substance. Usually inhibition stands for the change of the read-out against control, counted positive when it falls. A higher inhibition goes with strong suppression. In general, GI50 refers to the concentration that inhibits growth by half. For `C=CC(=O)Nc1cccc(-n2c(-c3nc(-c4cnn(C5CCN(C)CC5)c4)cnc3N)nc3ccccc32)c1`, the IC50 in series [1] was < 1 nM. Also, the inhibition in vivo at 50 mg/kg/day turned out to be 21% in the series on A-431, 238% in [14] and 117% with NCI-H1975 [15]. Moreover, the EC50 is 14 nM in series [2], 9 nM in series [3] and 980 nM in [4]. Besides, the microsomal CLint in [5] is 120 µL/min/mg. In addition, the solubility in series [6] was < 10 µM. Further, the inhibition in series [7], in [8] and in series [9] was > 75% each time. Also, the results for the GI50 (with NCI-H1975 [10]; in series [11]) were 25 nM and 16 nM, respectively. The compound also showed a GI50 at 72 h in series [12] of 1700 nM. For the same compound, the selectivity ratio in series [13] was > 60. Moreover, in the series on Mus musculus, the Time was 6 h.
